The text below walks through data of patent publication US20030148963A1 (priority 2000, published 2003).

The structures appear in SMILES notation. Marks after values point to notes of the source that are not given here.

Series [1] concerns S. aureus-induced arthritis. The procedure: NMRI mice of both sexes, 6-8 weeks old, were obtained from B&K Universal AB (Stockholm, Sweden). They were housed in the animal facility of the Department of Rheumatology, University of Göteborg, under standard conditions of light and temperature and fed standard laboratory chow and water ad libitum.
S. aureus LS-1 strain was originally isolated from a swollen joint of a spontaneously arthritic NZB/W mouse. The bacteria were cultured for […] on blood agar plates, replated for another 24 h, washed and kept frozen at −20° C. in PBS containing 5% bovine serum albumin ([…]) and 10% dimethyl sulfoxide ([…]) until used. Before use, the bacterial solution was thawed and washed in PBS. Viable count was done to check the number of bacteria in each bacterial solution mice were given i.v. injections (in the tail vein) of 0.2 ml of bacterial solution
All the mice were monitored individually. Their limbs were inspected visually every day during the experiment. Arthritis was defined as visible joint erytbema and/or swelling of at least one joint. To evaluate the intensity of arthritis, a clinical scoring system of 0 to 3 points for each limb was used (1 point, mild swelling and/or erytema; 2 points, moderate swelling and erythema; 3 points, marked swelling and erytema). The arthritic index was constructed by adding the scores from all four limbs for each animal. Previous study has shown that there is a good correlation between the clinical and histopathological appearance of arthritis. The overall condition of each mouse was evaluated by assessing its weight, general appearance, alertness, and skin abnormalities.

Series [2] has as its system draining lymph node cells. Nature of the series: Draining lymph node response after CII immunization. The series is classed as in vivo, mice.
Series [3] has as its system peripheral leukocytes. Put plainly: Peripheral blood cell count in naive mice. As to conditions: 12.5 mg/kg 4 days per week for 4 weeks, 3 days after last treatment. The series is classed as in vivo. The procedure:
Mice were bled from the tail into heparinized tubes at different time-points. The leukocytes were counted in a hemacytometer (Toa Medical Electronics, Kobe, Japan). Fifty microliters of the heparinized blood was analyzed in a FACScan cytometer (Becton Dickinson, San Jose, Calif.) to determine the percentages of lymphocytes, granulocytes, and monocytes. The absolute numbers of different leukocyte subsets were then calculated from the total leukocyte counts.

In series [4] the test system is S. aureus-induced arthritis. Nature of the series: Histopathological and immunohistochemical examination of joints, S. aureus arthritis. Type of series: in vivo, NMRI mice. The procedure:
The mice were sacrificed 6 days after bacterial inoculation One front and one hind paw from each animal in both groups (etoposide-treated and controls) were removed. Histopathological examination was performed after routine fixation, decalcification, paraffin embedding, and staining with hematoxylin and eosin. All the slides were coded and the joints were studied with regard to synovial hypertrophy (defined as a synovial membrane thickness of more than two cell layers), pannus formation (synovial tissue overlaying the joint cartilage), and cartilage and bone destruction.
In another experiment, mice were killed by cervical dislocation 6 days after bacterial inoculation, all four limbs were removed and demineralized by a procedure detailed in an earlier report. The demineralized specimens were mounted on cryostat chucks, frozen in isopentane prechilled by liquid nitrogen, and kept at −70° C. until cryosectioned. Six μm-thick sections were cut frontally to permit simultaneous inspection of most joints within the paw. All sections were fixed in cold acetone for 5 min, washed in PBS, and depleted of endogenous peroxidase by treatment with 0.3% H2O2 for 5 min. The sections were incubated overnight in a humid atmosphere at +4° C. with 50 μl portions of unlabelled rat monoclonal antibody specific for macrophages (Mac-3, clone M3/84 from PharMingen), diluted in PBS containing 1% BSA. Biotin-labelled rabbit antl-rat Ig diluted in PBS-BSA was used as secondary antibody. Binding of secondary antibodies was detected by stepwise incubation with avidin-biotin-peroxidase complexes (ABC) and a buffert containing 3-amino-9-ethyl-carbazole and H2O2. All sections were counterstained with Mayer's hematoxylin.

The test system of series [5] is IL-6. Put plainly: Serum IL-6 in S. aureus infected mice (B9 bioassay). Type of series: in vivo, NMRI mice. Particulars: six days after 1.4×10^7 CFU S. aureus; 12.5 mg/kg from three days prior; mean ± SEM, n = 6. The procedure:
The cell line B 13,29, subclone B9, which is dependent on IL-6 for its growth, was used for IL-6 determinations. The cells were seeded into microtiter plates at a concentration of 5000 cells/well and samples in different dilutions were added. One μCi of (3H) TdR (Amersham) was added after 68 h of culture, and the cells were harvested 4 h later. The results were compared with recombinant IL-6 standard (Genzyme, Cambridge, Mass.). The B9 cells were previously shown not to react with several recombinant cytolines including IL.-1, IL.-, L-2, IL-3, IL-5, granulocyte/macrophage CS17, TNF.-, and IFN.-, There was only a weak reactivity with IL-4 [14].

The test system of series [6] is spleen mononuclear cells. The series is classed as cell-based, NMRI mice. Particulars: spleen cells from naive mice, etoposide 1, 10, 100 μM; FIG. 2.
Series [7] deals with collagen induced arthritis (CIA). Put plainly: Collagen induced arthritis, histopathological examination of joints. Type of series: in vivo, B10.QxDBA/1 female mice. The procedure:
Histopathological examination was performed after routine fixation, decalcification, paraffin embedding, and staining with hematoxylin and eosin. All the slides were coded and the joints were studied with regard to synovial hypertrophy (defined as a synovial membrane thickness of more than two cell layers), pannus formation (synovial tissue overlaying the joint cartilage), and cartilage and bone destruction (loss of tissue integrity with resulting ingrowth of fibrotic tissue) (11). The severity of synovial hypertrophy and cartilage/bone destruction was scored from 0 (intact synovial, cartilage/bone tissue) to 3 (intense synovitis with total destruction of cartilage and/or bone).

Where [8] appears, read: Etoposide pretreated, n 16, day 61.
Where [9] appears, read: Etoposide treated (from day 40), n 17, day 61, mean ± SEM.

As for `COc1cc([C@@H]2c3cc4c(cc3[C@@H](O[C@@H]3O[C@@H]5CO[C@@H](C)O[C@H]5[C@H](O)[C@H]3O)[C@H]3COC(=O)[C@H]23)OCO4)cc(OC)c1O` [Etoposide], the Mortality entry in series [1] (1-2×10^7 CFU S. aureus, starting four days after inoculation, FIG. 1B) is “higher mortality than the controls”. Besides, the Weight loss entry in series [1] (S. aureus infected mice vs controls, data not shown) was “more prominent”. In addition, in series [1] (six days after inoculation, 1-2×10^7 CFU S. aureus, controls 70%), the “Frequency of clinical signs of arthritis” value amounted to 35%. Moreover, the Mice died in series [1] (suboptimal dose of bacteria 1×10^6 CFU, 8 days after inoculation, controls 1 out of 10) is 6 out of 10. Further, the “Numbers of B cells, T cells, macrophages and germinal centers in inguinal lymph nodes” value in series [2] (10 days after CII immunization, immunohistochemical stainings) is on record as “no significant effects on numbers”. Besides, in series [2] (lymph node cells challenged in vitro with CII, vs PBS controls), the “Antibodies to CII in lymph node cell cultures” value is given as “not produced at all”. Besides, the “T cell functions (proliferation, IFN-γ secretion) of lymph node cells” value in series [2] (lymph node cells challenged in vitro with CII, data not shown) is given as “no difference in T cell functions”. In series [3], the Numbers of granulocytes was 1.1±0.4 ×10^4/ml and the Numbers of monocytes is recorded as 71±28 ×10^4/ml. Also, in series [4] (6 days after S. aureus inoculation, controls 8 out of 10), the “Mice with cartilage and bone destructions” value is 4 out of 8. Further, the “Mice with synovial hypertrophy” value in series [4] (6 days after S. aureus inoculation, controls 9 out of 10) is reported as 4 out of 8. Further, the “Numbers of Mac-3 positive cells in joints” value in series [4] (S. aureus infected, etoposide vs PBS, data not shown) is listed as “did not show any significant differences”. Moreover, in series [5], the “Serum IL-6” value is recorded as 11.927 ± 4.610^b pg/ml. For the same compound, the “Proliferative responses to Con A and TSST-1” value in series [6] is “significantly decreased upon increasing concentrations”. In addition, in series [7] (setting [8]), the Cartilage/bone destruction score is 0 and the Synovial hypertrophy score is 0. In series [7] (setting [9]), this compound gave a Cartilage/bone destruction score of 4.5 ± 2.4 and a Synovial hypertrophy score of 2.4 ± 1.1.
